Test results taken from patent US7385054B2, “Trimeric, macrocyclically substituted halo-benzene derivatives” (Schering AG, priority 2004, dated 2008).

Tests used:
[1] = Osmolality of the solution at 200 mg (I + Gd)/ml; type: physicochemical; settings: prior-art compounds as Na-salt
[2] = BuOH/H2O distribution coefficient; type: physicochemical; settings: butanol/water
[3] = test system: Mouse; experiment: LD50 (Mouse), acute toxicity; type: in vivo

SMILES | Osmolality 200 mg (I + Gd)/ml [1] | BuOH/H2O Distribution Coefficient [2] | LD50 (Mouse) [3]
CC(C(=O)NCC(=O)NCCNC(=O)c1c(I)c(C(=O)NCCNC(=O)CNC(=O)C(C)N2CCN(CC(=O)[O-])CCN(CC(=O)[O-])CCN(CC(=O)[O-])CC2)c(I)c(N(C)C(=O)C(C)N2CCN(CC(=O)[O-])CCN(CC(=O)[O-])CCN(CC(=O)[O-])CC2)c1I)N1CCN(CC(=O)[O-])CCN(CC(=O)[O-])CCN(CC(=O)[O-])CC1.[Gd+3].[Gd+3].[Gd+3] (mixture of isomers) [Example 8, 2,4,6-Triiodo-5-(2-{10-[1,4,7-tris-(carboxymethyl)-1,4,7,10-tetraazacyclododecanyl]}propionyl, Gd-complex)methylaminoisophthalic acid-N,N-bis-(3,6-diaza-4,7-dioxo-8-methyloctane-1,5-diyl-{10-[1,4,7-tris-(carboxymethyl)-1,4,7,10-tetraazacyclododecanyl, Gd-complex]})amide] | 346 mosmol/l | 0.00005 | >12.0 g(I + Gd)/ g(I + Gd)/kg
CN(C(=O)CN1CCN(CC(=O)[O-])CCN(CC(=O)[O-])CCN(CC(=O)[O-])CC1)c1c(I)c(C(=O)NCCNC(=O)CN2CCN(CC(=O)[O-])CCN(CC(=O)[O-])CCN(CC(=O)[O-])CC2)c(I)c(C(=O)NCCNC(=O)CN2CCN(CC(=O)[O-])CCN(CC(=O)[O-])CCN(CC(=O)[O-])CC2)c1I.[Gd+3].[Gd+3].[Gd+3] [Example 5, 2,4,6-Triiodo-5-({10-[1,4,7-tris-(carboxymethyl)-1,4,7,10-tetraazacyclododecanyl]}acetyl, Gd-complex)methylaminoisophthalic acid-N,N-bis-(3-aza-4-oxopentane-1,5-diyl-{10-[1,4,7-tris-(carboxymethyl)-1,4,7,10-tetraazacyclododecanyl, Gd-complex]})amide] | 371 mosmol/l | 0.00006 | >12.0 g(I + Gd)/ g(I + Gd)/kg
CC(C(=O)NCCNC(=O)c1c(I)c(C(=O)NCCNC(=O)C(C)N2CCN(CC(=O)[O-])CCN(CC(=O)[O-])CCN(CC(=O)[O-])CC2)c(I)c(N(C)C(=O)C(C)N2CCN(CC(=O)[O-])CCN(CC(=O)[O-])CCN(CC(=O)[O-])CC2)c1I)N1CCN(CC(=O)[O-])CCN(CC(=O)[O-])CCN(CC(=O)[O-])CC1.[Gd+3].[Gd+3].[Gd+3] (stereo not drawn) [Example 1, 2,4,6-Triiodo-5-(2-{10-[1,4,7-tris-(carboxymethyl)-1,4,7,10-tetraazacyclododecanyl]}propionyl, Gd-complex)methylaminoisophthalic acid-N,N-bis-(3-aza-5-methyl-4-oxopentane-1,5-diyl-{10-[1,4,7-tris-(carboxymethyl)-1,4,7,10-tetraazacyclododecanyl,Gd-complex]})amide] | 358 mosmol/l | 0.00005 | >12.0 g(I + Gd)/ g(I + Gd)/kg
O=C([O-])CN1CCN(CC(=O)[O-])CCN(CC(=O)NCCNC(=O)c2c(I)c(NC(=O)CN3CCN(CC(=O)[O-])CCN(CC(=O)[O-])CCN(CC(=O)[O-])CC3)c(I)c(C(=O)NCCNC(=O)CN3CCN(CC(=O)[O-])CCN(CC(=O)[O-])CCN(CC(=O)[O-])CC3)c2I)CCN(CC(=O)[O-])CC1.[Gd+3].[Gd+3].[Gd+3] [Example 7, 2,4,6-Triiodo-5-({10-[1,4,7-tris-(carboxymethyl)-1,4,7,10-tetraazacyclododecanyl]}acetyl, Gd-complex)aminoisophthalic acid-N,N-bis-(3-aza-4-oxopentane-1,5-diyl-{10-[1,4,7-tris-(carboxymethyl)-1,4,7,10-tetraazacyclododecanyl, Gd-complex]})amide] | 334 mosmol/l | 0.00005 | >12.0 g(I + Gd)/ g(I + Gd)/kg
